Measurements as given in ChEMBL document CHEMBL4673296 (J Med Chem, 2020).
pIC50: −log10 of the molar value. Calls of active or inactive are those of the source. The calls are words filed in the database; no cut-off is given here.

Legend:
[1] = target: T1, Serine/threonine-protein kinase ULK2 (Homo sapiens, UniProt Q8IYT8); assay: Inhibition of recombinant human ULK2 (1 to 478 residues) expressed in Sf9 cells using myelin basic protein as substrate by ADP-glo assay
T1 sequence (Q8IYT8 whole entry): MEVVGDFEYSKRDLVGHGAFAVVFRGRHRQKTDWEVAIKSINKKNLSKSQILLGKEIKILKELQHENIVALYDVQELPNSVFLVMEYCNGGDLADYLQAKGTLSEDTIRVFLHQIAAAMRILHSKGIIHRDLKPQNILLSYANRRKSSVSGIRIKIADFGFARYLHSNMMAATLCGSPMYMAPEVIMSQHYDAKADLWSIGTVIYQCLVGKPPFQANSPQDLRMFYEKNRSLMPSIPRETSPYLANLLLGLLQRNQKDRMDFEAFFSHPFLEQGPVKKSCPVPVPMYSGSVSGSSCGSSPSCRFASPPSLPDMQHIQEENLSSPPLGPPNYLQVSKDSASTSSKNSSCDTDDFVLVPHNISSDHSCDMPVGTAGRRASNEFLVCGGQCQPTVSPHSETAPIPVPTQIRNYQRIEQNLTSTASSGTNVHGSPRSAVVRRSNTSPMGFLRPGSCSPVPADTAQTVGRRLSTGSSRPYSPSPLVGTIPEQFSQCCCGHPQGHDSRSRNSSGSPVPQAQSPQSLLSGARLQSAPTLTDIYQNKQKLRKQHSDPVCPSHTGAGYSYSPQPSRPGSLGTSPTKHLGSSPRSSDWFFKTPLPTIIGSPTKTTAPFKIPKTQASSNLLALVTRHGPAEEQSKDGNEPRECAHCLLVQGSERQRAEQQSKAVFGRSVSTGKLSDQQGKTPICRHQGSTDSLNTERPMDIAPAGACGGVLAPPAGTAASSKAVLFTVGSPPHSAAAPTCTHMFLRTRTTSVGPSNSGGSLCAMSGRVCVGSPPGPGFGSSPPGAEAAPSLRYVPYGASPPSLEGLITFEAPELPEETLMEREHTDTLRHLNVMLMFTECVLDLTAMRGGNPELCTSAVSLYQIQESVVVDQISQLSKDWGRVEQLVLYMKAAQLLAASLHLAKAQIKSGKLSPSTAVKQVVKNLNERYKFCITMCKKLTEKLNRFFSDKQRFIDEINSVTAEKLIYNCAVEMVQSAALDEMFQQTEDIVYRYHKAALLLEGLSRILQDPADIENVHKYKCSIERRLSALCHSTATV

[2] = target: T2, Serine/threonine-protein kinase ULK1 (Homo sapiens) (UniProt O75385); assay: Binding affinity to recombinant human ULK1 assessed as change in melting temperature at 10 uM by thermal shift assay
T2 sequence (whole entry): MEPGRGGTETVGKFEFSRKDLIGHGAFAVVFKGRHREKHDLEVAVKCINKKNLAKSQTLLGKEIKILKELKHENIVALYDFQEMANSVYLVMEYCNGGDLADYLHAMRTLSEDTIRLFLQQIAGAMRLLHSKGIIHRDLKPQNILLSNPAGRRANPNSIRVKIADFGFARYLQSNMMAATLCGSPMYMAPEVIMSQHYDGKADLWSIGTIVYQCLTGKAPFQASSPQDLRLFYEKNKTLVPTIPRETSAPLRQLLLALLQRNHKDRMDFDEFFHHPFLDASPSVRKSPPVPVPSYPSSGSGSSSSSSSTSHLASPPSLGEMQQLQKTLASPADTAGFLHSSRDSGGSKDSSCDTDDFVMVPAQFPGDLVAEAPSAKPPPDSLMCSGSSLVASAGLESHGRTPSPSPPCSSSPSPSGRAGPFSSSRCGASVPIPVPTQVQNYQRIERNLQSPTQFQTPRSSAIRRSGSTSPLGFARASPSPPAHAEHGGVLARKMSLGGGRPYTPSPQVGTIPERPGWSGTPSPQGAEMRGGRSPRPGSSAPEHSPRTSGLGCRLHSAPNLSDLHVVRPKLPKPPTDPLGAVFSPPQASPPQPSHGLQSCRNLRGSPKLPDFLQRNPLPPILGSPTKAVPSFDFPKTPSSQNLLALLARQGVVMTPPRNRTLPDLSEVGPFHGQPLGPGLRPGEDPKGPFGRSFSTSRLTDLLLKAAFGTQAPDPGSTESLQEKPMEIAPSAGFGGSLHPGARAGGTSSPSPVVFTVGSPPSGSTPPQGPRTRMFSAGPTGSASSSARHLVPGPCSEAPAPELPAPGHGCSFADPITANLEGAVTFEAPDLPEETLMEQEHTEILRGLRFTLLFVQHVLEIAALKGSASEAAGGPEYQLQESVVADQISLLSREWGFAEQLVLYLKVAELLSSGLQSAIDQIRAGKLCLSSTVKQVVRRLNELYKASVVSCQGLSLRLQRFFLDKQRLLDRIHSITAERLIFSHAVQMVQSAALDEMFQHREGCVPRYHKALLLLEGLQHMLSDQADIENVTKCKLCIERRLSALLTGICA

[3] = target: T1, Serine/threonine-protein kinase ULK2; assay: Inhibition of ULK2 (unknown origin) expressed in HEK293T cells incubated for 2 hrs by NanoBRET assay; format: cell-based
[4] = Efflux ratio of apparent permeability from basolateral side to apical side over apical side to basolateral side in human Caco2 cells; format: ADME, cell-based; conditions: Caco-2
[5] = Half life in C57BL/6J mouse at 30 mg/kg, po measured upto 24 hrs by LC-MS/MS analysis; format: ADME, organism-based; conditions: in vivo
Mus musculus [6] = assay: Ex vivo inhibition of ULK1 in liver lysate of C57BL/6J mouse assessed as decrease in pATG13 (Ser318) levels at 10 mg/kg, po measured after 2 hrs by Western blot analysis; format: functional, organism-based
Mus musculus [7] = assay: Decrease in total ATG13 level in liver lysate of C57BL/6J mouse at 10 mg/kg, po measured after 2 hrs by Western blot analysis; format: functional, organism-based
MDA-MB-468 [8] = assay: Induction of apoptosis in human MDA-MB-468 cells assessed as late apoptotic cells at 10 uM measured after 18 hrs in normal growth media by AnnexinV/7-AAD staining based flow cytometric analysis (reference value: 6.8%); format: functional
MDA-MB-468 [9] = assay: Induction of apoptosis in human MDA-MB-468 cells assessed as viable cells at 10 uM measured after 18 hrs in low-glucose, amino acid-free Earles balanced salt solution (EBSS) media by AnnexinV/7-AAD staining based flow cytometric analysis (reference value: 86.6%); format: functional; conditions: read-out: Activity
MDA-MB-468 [10] = assay: Induction of apoptosis in human MDA-MB-468 cells assessed as early apoptotic cells at 10 uM measured after 18 hrs in low-glucose, amino acid-free Earles balanced salt solution (EBSS) media by AnnexinV/7-AAD staining based flow cytometric analysis (reference value: 5.6%); format: functional
MDA-MB-468 [11] = assay: Reduction in autophagosome accumulation in human MDA-MB-468 cells at 10 uM by transmission electron microscopic analysis; format: functional, cell-based
MDA-MB-468 [12] = assay: Synergistic cytotoxicity against human MDA-MB-468 cells at 0.19 to 1.7 uM in presence of PARP inhibitor niraparib measured after 72 hrs by Celltiter-Glo assay; format: functional, cell-based; conditions: dose 0.19-1.7 µM
MDA-MB-468 [13] = assay: cells; conditions: Homo sapiens, MDA-MB-468, 72 h
Description: Cytotoxicity against human MDA-MB-468 cells measured after 72 hrs by Celltiter-Glo assay

Question: What does the source list for COc1ccc(Nc2ncc(C(F)(F)F)c(NC3CC3)n2)cc1OC?
Answer: pIC50 [1]: 6.32; ΔTm [2]: 8.3 °C; pIC50 [3]: 5.94; efflux ratio [4]: < 2; half-life [5]: 1.7 h; inhibition (Mus musculus [6]): Active; inhibition (Mus musculus [7]): Active; Activity (MDA-MB-468 [8]): 6.8%; viability at 10 µM (MDA-MB-468 [9]): 38.6%; Activity (MDA-MB-468 [10]): 42.9%; inhibition (MDA-MB-468 [11]): Active; Activity (MDA-MB-468 [12]): Active; pIC50 (MDA-MB-468 [13]): 6.52
